Measured values as given in EPA's ToxValDB 9.5.
“And” between values parts separate entries of the source, which are not always exact repeats. Identical values can stand only once.

Tested on: Rattus norvegicus
Conditions: oral
[1] = chronic, duration: 6 months, drinking water, M/F, Sprague-Dawley, Morris water maze (escape time, acquisition, day 6)
[2] = chronic, duration: 6 months, drinking water, M, Wistar, open field (entries to neighboring grids, day 1) + Y-maze (correct responses, day 9)
[3] = chronic, duration: 6 months, drinking water, M, Wistar, open field (standing attempts, day 1) + open field (standing attempts, day 9) + open field (time in central grid, day 1) + Y-maze (correct …
[4] = developmental, drinking water, M/F, Wistar, generation: F1, F1: active avoidance (shuttle box, conditioned avoidance response, day 2)
[5] = developmental, drinking water, M/F, Wistar, generation: F1, F1: maze test (latency to complete, day 1) + F1: maze test (latency to complete, day 5) + F1: maze test (number entries into blind alleys, …
[6] = developmental, drinking water, M, Wistar, generation: F1, F1: elevated plus maze (open arm entries) + F1: elevated plus maze (time in open arms) + F1: open field (grooming events) + F1: open field (…
[7] = developmental, gavage, F, Wistar, generation: F1, F1: novel object test (time exploring both objects, trial 2) + F1: novel object test (time exploring familiar object, trial 2)
[8] = developmental, gavage, M, Wistar, generation: F1, F1: active avoidance (shuttle box, conditioned avoidance response, 4th block) + F1: passive avoidance (avoidance latency) + F1: rotarod (…
[9] = developmental, gavage, M, Wistar, generation: F1, F1: auditory startle reflex (peak latency) + F1: auditory startle reflex (pre-pulse inhibition peak latency) + F1: vocalization (number …

For `[F-].[Na+]` [Sodium fluoride], the LOEL (chronic, duration: 5 months, drinking water, Sprague-Dawley, Y-maze (number of correct responses over 10 trainings after 24 hours) + Y-maze (number of training runs to meet learning standard 90%)) was 9.8 mg/kg-day, the LOEL (chronic, duration: 5 months, drinking water, Wistar, Y-maze (number of training runs to achieve 9 consecutive correct responses)) was 6.91 mg/kg-day and the NOEL (chronic, duration: 6 months, drinking water, M/F, Sprague-Dawley, Morris water maze (escape time, acquisition, day 1)) was 3.28 mg/kg-day and 3.27 mg/kg-day. The LOEL [1] was 3.27 mg/kg-day, the NOEL [1] was 0.33 mg/kg-day and the LOEL (chronic, duration: 6 months, drinking water, M/F, Sprague-Dawley, Morris water maze (escape time, acquisition, day 6) + Morris water maze (escape time, probe test, day 7)) was 0.33 mg/kg-day. The LOEL (chronic, duration: 6 months, drinking water, M/F, Sprague-Dawley, Morris water maze (escape time, acquisition, day 6) + Morris water maze (time in platform area, probe test, day 7) + Morris water maze (time…) was 0.33 mg/kg-day, the NOEL (chronic, duration: 6 months, drinking water, M/F, Sprague-Dawley, Morris water maze (platform crossing, probe test, day 7)) was 3.27 mg/kg-day and the LOEL (chronic, duration: 6 months, drinking water, M/F, Sprague-Dawley, Morris water maze (time in platform area, probe test, day 7)) was 0.33 mg/kg-day. The LOEL (chronic, duration: 6 months, drinking water, M, Wistar, Y-maze (time to meet learning standard 90%)) was 3.34 mg/kg-day, the LOEL [2] was 10 mg/kg-day and the NOEL [2] was 6.67 mg/kg-day. For the same compound, the NOEL (chronic, duration: 6 months, drinking water, M, Wistar, open field (entries to neighboring grids, day 9) + open field (time in central grid, day 9)) was 10 mg/kg-day, the LOEL [3] was 6.67 mg/kg-day and the NOEL [3] was 3.34 mg/kg-day. The LOEL (chronic, duration: 10 months, drinking water, M/F, Sprague-Dawley, Morris water maze (escape time, acquisition, average over days 1-6) + Morris water maze (platform crossing, probe test, day 7)) was 2.16 mg/L urine, the LOEL (chronic, duration: 14 weeks, drinking water, M, Wistar, sexual behavior (ejaculation frequency) + sexual behavior (ejaculation latency) + sexual behavior (intromission latency) + sexual behavior (…) was 6.67 mg/kg-day and the NOEL (chronic, duration: 115 days, drinking water, M, Wistar, open field (squares crossed)) was 6.67 mg/kg-day. For the same compound, the LOEL (chronic, duration: 115 days, drinking water, M, Wistar, plank walking (narrow, distance traveled) + plank walking (narrow, number of turns) + plank walking (wide, distance traveled) + plank …) was 6.67 mg/kg-day, the LOEL (developmental, diet, M/F, Sprague-Dawley, generation: F1, F1: Morris water maze (escape time, acquisition, day 6) + F1: Morris water maze (platform crossing, probe test, day 7) + F1: Morris water …) was 8.52 mg/L urine and the NOEL (developmental, drinking water, F, Wistar, generation: F1, F1: cliff avoidance + F1: ear opening + F1: negative geotaxis + F1: surface righting) was 0.54 mg/kg-day. The LOEL (developmental, drinking water, F, Wistar, generation: F1, F1: elevated plus maze (open arm entries) + F1: elevated plus maze (time in open arms) + F1: open field (grooming events) + F1: open field (…) was 0.27 mg/kg-day, the NOEL (developmental, drinking water, F, Wistar, generation: F1, F1: elevated plus maze (open arm entries) + F1: open field (defecation) + F1: open field (grooming events) + F1: open field (rearing events…) was 0.54 mg/kg-day and the LOEL (developmental, drinking water, F, Wistar, generation: F1, F1: elevated plus maze (time in open arms)) was 0.27 mg/kg-day. The LOEL (developmental, drinking water, F, Wistar, generation: F1, F1: eye opening) was 0.27 mg/kg-day, the NOEL (developmental, drinking water, F, Wistar, generation: F1, F1: open field (defecation) + F1: open field (rearing events, 15 min)) was 0.54 mg/kg-day and the LOEL (developmental, drinking water, M/F, Sprague-Dawley, generation: F1, F1: Morris water maze (distance traveled to reach platform, acquisition, day 4) + F1: Morris water maze (latency to reach platform, …) was 1.63 mg/kg-day. For the same compound, the LOEL (developmental, drinking water, M/F, Sprague-Dawley, generation: F1, F1: Morris water maze (escape time, acquisition, average over days 1-6) + F1: Morris water maze (platform crossing, probe test, day 7) + F1…) was 3.27 mg/kg-day, the NOEL (developmental, drinking water, M/F, Sprague-Dawley, generation: F1, F1: Morris water maze (swim speed to reach platform, acquisition, day 4)) was 6.53 mg/kg-day and the LOEL [4] was 4.35 mg/kg-day. For the same compound, the NOEL [4] was 2.18 mg/kg-day, the LOEL (developmental, drinking water, M/F, Wistar, generation: F1, F1: active avoidance (shuttle box, conditioned avoidance response, day 9) + F1: pain response (hot plate, latency period)) was 2.18 mg/kg-day and the LOEL (developmental, drinking water, M/F, Wistar, generation: F1, F1: elevated plus maze (open arm entries) + F1: elevated plus maze (time in open arms) + F1: mid-air righting (number of animals successful…) was 9.05 mg/kg-day. It also gave an LOEL [5] of 4.87 mg/kg-day, an NOEL [5] of 2.33 mg/kg-day and an LOEL (developmental, drinking water, M/F, Wistar, generation: F1, F1: open field (rearing events, day 1) + F1: open field (rearing events, day 3)) of 2.33 mg/kg-day. The NOEL (developmental, drinking water, M/F, Wistar, generation: F1, F1: open field (squares crossed, day 1) + F1: open field (squares crossed, day 3)) was 4.87 mg/kg-day, the LOEL (developmental, drinking water, M/F, Wistar, generation: F1, F1: passive avoidance (step-down test, number of shocks, session 2, day 30) + F1: passive avoidance (step-down test, time to move from …) was 6.91 mg/kg-day and the NOEL (developmental, drinking water, M, Wistar, generation: F1, F1: cliff avoidance + F1: ear opening + F1: negative geotaxis + F1: surface righting) was 0.54 mg/kg-day. For the same compound, the LOEL [6] was 0.27 mg/kg-day, the NOEL [6] was 0.54 mg/kg-day and the LOEL (developmental, drinking water, M, Wistar, generation: F1, F1: eye opening) was 0.27 mg/kg-day. For the same compound, the LOEL (developmental, drinking water, M, Wistar, generation: F1, F1: open field (defecation)) was 0.27 mg/kg-day, the NOEL (developmental, drinking water, M, Wistar, generation: F1, F1: open field (defecation) + F1: open field (rearing events, 15 min)) was 0.54 mg/kg-day and the LOEL (developmental, drinking water, M, Wistar, generation: F1, F1: sexual behavior (% of males ejaculating) + F1: sexual behavior (ejaculation frequency) + F1: sexual behavior (ejaculation latency) + F1…) was 3.12 mg/kg-day. The NOEL (developmental, drinking water, Wistar, generation: F1, F1: Y-maze (error number, 12 weeks) + F1: Y-maze (error number, 6 weeks) + F1: Y-maze (time to meet learning standard 90%, 6 weeks) + F1: Y-…) was 2.78 mg/L serum, the LOEL (developmental, drinking water, Wistar, generation: F1, F1: Y-maze (time to meet learning standard 90%, 12 weeks) + F1: Y-maze (total reaction time, 6 weeks)) was 2.78 mg/L serum and the NOEL (developmental, gavage, F, Wistar, generation: F1, F1: active avoidance (shuttle box, conditioned avoidance response, 1st block) + F1: active avoidance (shuttle box, conditioned avoidance …) was 2.26 mg/kg-day. The NOEL (developmental, gavage, F, Wistar, generation: F1, F1: auditory startle reflex (amplitude) + F1: auditory startle reflex (peak latency) + F1: auditory startle reflex (pre-pulse inhibition …) was 2.26 mg/kg-day, the LOEL [7] was 2.26 mg/kg-day and the NOEL [7] was 1.13 mg/kg-day. It also gave an LOEL (developmental, gavage, M/F, Sprague-Dawley, generation: F1, F1: air righting + F1: Morris water maze (escape time, probe test, day 5) + F1: Morris water maze (platform crossing, probe test, day 5) + …) of 3.44 mg/kg-day, an NOEL (developmental, gavage, M/F, Sprague-Dawley, generation: F1, F1: auditory startle (response to metal object sound) + F1: cliff avoidance) of 3.44 mg/kg-day and an NOEL (developmental, gavage, M, Wistar, generation: F1, F1: active avoidance (shuttle box, conditioned avoidance response, 1st block) + F1: novel object test (time exploring both objects, trial 2…) of 2.26 mg/kg-day. It also gave an LOEL [8] of 2.26 mg/kg-day, an NOEL [8] of 1.13 mg/kg-day and an LOEL (developmental, gavage, M, Wistar, generation: F1, F1: auditory startle reflex (amplitude)) of 1.13 mg/kg-day. The LOEL [9] was 2.26 mg/kg-day, the NOEL [9] was 1.13 mg/kg-day and the LOEL (developmental, gavage, M, Wistar, generation: F1, F1: sexual behavior (mount/intromission frequency) + F1: sexual behavior (mount/intromission latency)) was 1.13 mg/kg-day.
